Key:
redroot pigweed [1] = assay: Test Example 4: herbicidal effect by soil treatment (Table 19, symbol N); assay type: in vivo, redroot pigweed (Amaranthus retroflexus)
Procedure, shortened: (§1)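 Step 1: sow seeds in sterilized diluvial soil, cover ~1.5 cm. Step 2: spray diluted emulsion onto soil surface at predetermined rate. Step 3: greenhouse, 25–30° C, three weeks. Step 4: grade effect on each plant by earlier criteria.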

Japanese bulrush = assay: Test Example 1: herbicidal activity, application before weed generation under submerged conditions (Table 16, symbol B); assay type: in vivo, Japanese bulrush (Schoenoplectus juncoides)
Procedure, shortened: (§2)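 Submerged Wagner pots (alluvial soil, 4 cm water) sown with weed seeds and planted with 2.5-leaf rice seedlings; emulsifiable concentrate diluted in water applied to water surface on sowing day. Held in greenhouse at 25-30 °C; injury scored 0-5 by herbicidal rate after three weeks.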

green foxtail [2] = assay: Test Example 5: herbicidal effect by foliage application, plastic box (Table 20, symbol G); assay type: in vivo, green foxtail (Setaria viridis); conditions: foliage application, three weeks after application
Procedure, shortened: (§3)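 Foliar spray test: emulsion formulation diluted in water to a set application rate, sprayed onto 14-day-old plants raised in diluvial soil at 25° C to 30° C under glass. Both herbicidal effect and crop effect rated visually three weeks later.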

green foxtail [3] = assay: Test Example 4: herbicidal effect by soil treatment (Table 19, symbol G); assay type: in vivo, green foxtail (Setaria viridis)
Procedure, shortened: as §1

late watergrass = assay: Test Example 1: herbicidal activity, application before weed generation under submerged conditions (Table 16, symbol A); assay type: in vivo, late watergrass (Echinochloa oryzicola)
Procedure, shortened: as §2

rice flat sedge = assay: Test Example 3: herbicidal effect by foliage application, Wagner pot (Table 18, symbol E); assay type: in vivo, rice flat sedge (Cyperus iria)
Procedure, shortened: (§4)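 Plants were sown in alluvial soil held under 0.1–0.5 cm standing water and grown 14 days in a greenhouse at 25–30 °C. An emulsifiable formulation, water-diluted to the set dose, was then sprayed onto the foliage, and effects were scored three weeks later using previously defined criteria.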

lambsquarters [4] = assay: Test Example 5: herbicidal effect by foliage application, plastic box (Table 20, symbol O); assay type: in vivo, lambsquarters (Chenopodium album); conditions: foliage application, three weeks after application
Procedure, shortened: as §3

oval-leafed pondweed = assay: Test Example 1: herbicidal activity, application before weed generation under submerged conditions (Table 16, symbol C); assay type: in vivo, oval-leafed pondweed (Monochoria vaginalis)
Procedure, shortened: as §2

lambsquarters [5] = assay: Test Example 4: herbicidal effect by soil treatment (Table 19, symbol O); assay type: in vivo, lambsquarters (Chenopodium album)
Procedure, shortened: as §1

southern crabgrass [6] = assay: Test Example 5: herbicidal effect by foliage application, plastic box (Table 20, symbol F); assay type: in vivo, southern crabgrass (Digitaria ciliaris); conditions: foliage application, three weeks after application
Procedure, shortened: as §3

barnyard grass [7] = assay: Test Example 3: herbicidal effect by foliage application, Wagner pot (Table 18, symbol H); assay type: in vivo, barnyard grass (Echinochloa crus-galli)
Procedure, shortened: as §4

velvetleaf [8] = assay: Test Example 4: herbicidal effect by soil treatment (Table 19, symbol M); assay type: in vivo, velvetleaf (Abutilon theophrasti)
Procedure, shortened: as §1

barnyard grass [9] = assay: Test Example 5: herbicidal effect by foliage application, plastic box (Table 20, symbol H); assay type: in vivo, barnyard grass (Echinochloa crus-galli); conditions: foliage application, three weeks after application
Procedure, shortened: as §3

velvetleaf [10] = assay: Test Example 5: herbicidal effect by foliage application, plastic box (Table 20, symbol M); assay type: in vivo, velvetleaf (Abutilon theophrasti); conditions: foliage application, three weeks after application
Procedure, shortened: as §3

redroot pigweed [11] = assay: Test Example 5: herbicidal effect by foliage application, plastic box (Table 20, symbol N); assay type: in vivo, redroot pigweed (Amaranthus retroflexus); conditions: foliage application, three weeks after application
Procedure, shortened: as §3

Chinese sprangletop = assay: Test Example 3: herbicidal effect by foliage application, Wagner pot (Table 18, symbol D); assay type: in vivo, chinese sprangletop (Leptochloa chinensis)
Procedure, shortened: as §4

southern crabgrass [12] = assay: Test Example 4: herbicidal effect by soil treatment (Table 19, symbol F); assay type: in vivo, southern crabgrass (Digitaria ciliaris)
Procedure, shortened: as §1

barnyard grass [13] = assay: Test Example 4: herbicidal effect by soil treatment (Table 19, symbol H); assay type: in vivo, barnyard grass (Echinochloa crus-galli)
Procedure, shortened: as §1

[14] = amount of applied herbicide 320 g/ha
[15] = amount of applied herbicide 403 g/ha

Structure (SMILES) | herbicidal effect, N: redroot pigweed (redroot pigweed [1]; [14]) | Herbicidal effect, B: Japanese bulrush (Japanese bulrush; [14]) | G: green foxtail, herbicidal effect grade (green foxtail [2]; 320 g/ha) | herbicidal effect, G: green foxtail (green foxtail [3]; [14]) | Herbicidal effect, A: late watergrass (late watergrass; [14]) | herbicidal effect on E: rice flat sedge (rice flat sedge; [14]) | O: lambsquarters, herbicidal effect grade (lambsquarters [4]; 320 g/ha) | Herbicidal effect, C: oval-leafed pondweed (oval-leafed pondweed; [14]) | herbicidal effect, O: lambsquarters (lambsquarters [5]; [14]) | F: southern crabgrass, herbicidal effect grade (southern crabgrass [6]; 320 g/ha) | herbicidal effect on H: barnyard grass (barnyard grass [7]; [14]) | herbicidal effect, M: velvetleaf (velvetleaf [8]; [14]) | H: barnyard grass, herbicidal effect grade (barnyard grass [9]; 320 g/ha) | M: velvetleaf, herbicidal effect grade (velvetleaf [10]; 320 g/ha) | N: redroot pigweed, herbicidal effect grade (redroot pigweed [11]; 320 g/ha) | herbicidal effect on D: Chinese sprangletop (Chinese sprangletop; [14]) | herbicidal effect, F: southern crabgrass (southern crabgrass [12]; [14]) | herbicidal effect, H: barnyard grass (barnyard grass [13]; [14]) | other results
Cc1nn(C)c(=O)c(-c2c(-c3ccc(OCCS(C)(=O)=O)cc3)sc3ccc(F)cc23)c1O [2-444] | 5 (Herbicidal rate of 90% or more (almost completely withered)) | 0 (Herbicidal rate of 5% or less (almost no effect)) | 5 (Herbicidal rate of 90% or more (almost completely withered)) | 5 (Herbicidal rate of 90% or more (almost completely withered)) | 3 (Herbicidal rate of 40% or more and less than 70%) | 5 (Herbicidal rate of 90% or more (almost completely withered)) | 5 (Herbicidal rate of 90% or more (almost completely withered)) | 0 (Herbicidal rate of 5% or less (almost no effect)) | 5 (Herbicidal rate of 90% or more (almost completely withered)) | 5 (Herbicidal rate of 90% or more (almost completely withered)) | 5 (Herbicidal rate of 90% or more (almost completely withered)) | 3 (Herbicidal rate of 40% or more and less than 70%) | 5 (Herbicidal rate of 90% or more (almost completely withered)) | 5 (Herbicidal rate of 90% or more (almost completely withered)) | 5 (Herbicidal rate of 90% or more (almost completely withered)) | 4 (Herbicidal rate of 70% or more and less than 90%) | 5 (Herbicidal rate of 90% or more (almost completely withered)) | 4 (Herbicidal rate of 70% or more and less than 90%) | 
CON=C(C)CSc1ccc(-c2sc3ccc(F)cc3c2-c2c(O)c(C)nn(C)c2=O)cc1 [2-451] | 5 (Herbicidal rate of 90% or more (almost completely withered)) | 0 (Herbicidal rate of 5% or less (almost no effect)) | 5 (Herbicidal rate of 90% or more (almost completely withered)) | 0 (Herbicidal rate of 5% or less (almost no effect)) | 2 (Herbicidal rate of 20% or more and less than 40%) | 5 (Herbicidal rate of 90% or more (almost completely withered)) | 5 (Herbicidal rate of 90% or more (almost completely withered)) | 0 (Herbicidal rate of 5% or less (almost no effect)) | 4 (Herbicidal rate of 70% or more and less than 90%) | 4 (Herbicidal rate of 70% or more and less than 90%) | 5 (Herbicidal rate of 90% or more (almost completely withered)) | 3 (Herbicidal rate of 40% or more and less than 70%) | 5 (Herbicidal rate of 90% or more (almost completely withered)) | 5 (Herbicidal rate of 90% or more (almost completely withered)) | 5 (Herbicidal rate of 90% or more (almost completely withered)) | 3 (Herbicidal rate of 40% or more and less than 70%) | 0 (Herbicidal rate of 5% or less (almost no effect)) | 0 (Herbicidal rate of 5% or less (almost no effect)) | 
CC[S+]([O-])c1cccc(-c2sc3ccc(F)cc3c2-c2c(O)c(C)nn(C)c2=O)c1 (stereo not drawn) [2-460] |  |  |  |  |  |  |  |  |  |  |  |  |  |  |  |  |  |  | herbicidal effect, N: redroot pigweed (redroot pigweed [1]; [15]): 3 (Herbicidal rate of 40% or more and less than 70%); Herbicidal effect, B: Japanese bulrush (Japanese bulrush; [15]): 0 (Herbicidal rate of 5% or less (almost no effect)); G: green foxtail, herbicidal effect grade (green foxtail [2]; 403 g/ha): 2 (Herbicidal rate of 20% or more and less than 40%); herbicidal effect, G: green foxtail (green foxtail [3]; [15]): 0 (Herbicidal rate of 5% or less (almost no effect)); Herbicidal effect, A: late watergrass (late watergrass; [15]): 3 (Herbicidal rate of 40% or more and less than 70%); herbicidal effect on E: rice flat sedge (rice flat sedge; [15]): 0 (Herbicidal rate of 5% or less (almost no effect)); O: lambsquarters, herbicidal effect grade (lambsquarters [4]; 403 g/ha): 3 (Herbicidal rate of 40% or more and less than 70%); Herbicidal effect, C: oval-leafed pondweed (oval-leafed pondweed; [15]): 0 (Herbicidal rate of 5% or less (almost no effect)); herbicidal effect, O: lambsquarters (lambsquarters [5]; [15]): 3 (Herbicidal rate of 40% or more and less than 70%); F: southern crabgrass, herbicidal effect grade (southern crabgrass [6]; 403 g/ha): 0 (Herbicidal rate of 5% or less (almost no effect)); herbicidal effect on H: barnyard grass (barnyard grass [7]; [15]): 4 (Herbicidal rate of 70% or more and less than 90%); herbicidal effect, M: velvetleaf (velvetleaf [8]; [15]): 0 (Herbicidal rate of 5% or less (almost no effect)); H: barnyard grass, herbicidal effect grade (barnyard grass [9]; 403 g/ha): 3 (Herbicidal rate of 40% or more and less than 70%); M: velvetleaf, herbicidal effect grade (velvetleaf [10]; 403 g/ha): 3 (Herbicidal rate of 40% or more and less than 70%); N: redroot pigweed, herbicidal effect grade (redroot pigweed [11]; 403 g/ha): 3 (Herbicidal rate of 40% or more and less than 70%); herbicidal effect on D: Chinese sprangletop (Chinese sprangletop; [15]): 0 (Herbicidal rate of 5% or less (almost no effect)); herbicidal effect, F: southern crabgrass (southern crabgrass [12]; [15]): 0 (Herbicidal rate of 5% or less (almost no effect)); herbicidal effect, H: barnyard grass (barnyard grass [13]; [15]): 0 (Herbicidal rate of 5% or less (almost no effect))
Cc1nn(C)c(=O)c(-c2c(-c3ccoc3)sc3ccc(F)cc23)c1O [2-461] | 2 (Herbicidal rate of 20% or more and less than 40%) | 0 (Herbicidal rate of 5% or less (almost no effect)) | 3 (Herbicidal rate of 40% or more and less than 70%) | 0 (Herbicidal rate of 5% or less (almost no effect)) | 3 (Herbicidal rate of 40% or more and less than 70%) | 4 (Herbicidal rate of 70% or more and less than 90%) | 3 (Herbicidal rate of 40% or more and less than 70%) | 0 (Herbicidal rate of 5% or less (almost no effect)) | 1 (Herbicidal rate of 5% or more and less than 20%) | 2 (Herbicidal rate of 20% or more and less than 40%) | 4 (Herbicidal rate of 70% or more and less than 90%) | 0 (Herbicidal rate of 5% or less (almost no effect)) | 3 (Herbicidal rate of 40% or more and less than 70%) | 4 (Herbicidal rate of 70% or more and less than 90%) | 4 (Herbicidal rate of 70% or more and less than 90%) | 0 (Herbicidal rate of 5% or less (almost no effect)) | 0 (Herbicidal rate of 5% or less (almost no effect)) | 0 (Herbicidal rate of 5% or less (almost no effect)) | 
